Holding throughout (format): cell-based
For experiment [1], the target named is T1, HCRTR2 (Homo sapiens, UniProt O43614).
T1 sequence (O43614 1-444): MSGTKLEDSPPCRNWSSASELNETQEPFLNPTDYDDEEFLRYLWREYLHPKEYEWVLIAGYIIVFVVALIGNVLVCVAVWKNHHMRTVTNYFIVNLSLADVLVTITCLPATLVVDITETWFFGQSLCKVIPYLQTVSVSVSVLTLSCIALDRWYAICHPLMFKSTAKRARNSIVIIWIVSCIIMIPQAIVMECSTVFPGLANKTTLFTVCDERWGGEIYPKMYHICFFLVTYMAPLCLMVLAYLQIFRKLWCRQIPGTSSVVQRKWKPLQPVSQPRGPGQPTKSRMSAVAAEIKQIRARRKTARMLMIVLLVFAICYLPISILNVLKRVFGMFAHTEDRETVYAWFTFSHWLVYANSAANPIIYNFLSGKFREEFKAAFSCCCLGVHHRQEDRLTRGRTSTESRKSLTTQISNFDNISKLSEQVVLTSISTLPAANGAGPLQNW
Nature of the experiment: PathHunter β-Arrestin GPCR antagonist assay, HCRTR2. To be noted: for HCRTR2 (Antagonist) percent inhibition: antagonist mode, agonist challenge at EC80. The method, then: (§1) To evaluate the role specific cannabinoid compounds may play on the sleep/wake cycle, a GPCR reactivity assay was performed to determine the reactivity of 19 cannabinoid compounds to the orexin receivers HCRTR1 and HCRTR2. The evaluated cannabinoid compounds were: CBN, THCV, CBDVA, CBG, CBL, CBC, CBDV, CBDA, CBD, CBGA, (+)-CBD, CBG-C4, CBD-C1, CBD-C2, CBGV, CBGA-C4, CBGVA, CBCA, and CBLA. Orexin A was used as the control for HCRTR1 and HCRTR2.
(§2) To perform the GPCR reactivity assay, a commercial GPCR assay, PathHunter® β-Arrestin from Eurofins DiscoverX Products (Fremont, Calif.), was used. […] At activation of the GPCR receptor and recruitment of β-arrestin, complementation of the peptide fragments occurs and restores β-galactosidase activity. The amount of β-galactosidase activity is then measurable using chemiluminescent reagents.
(§3) In each of the two antagonist assays, PathHunter® cell lines were removed from a freezer stock and seeded at a volume of 20 μL into white walled, 384-well microplates and incubated at 37° C. Each cell was pre-incubated with an antagonist followed by an agonist challenge at the EC80 concentration. Cells were then diluted to generate a 5× sample in assay buffer. 5 μL of the 5× sample was then added to cells and incubated at 37° C. for 30 minutes. Finally, 5 μL of 6×EC80 agonist in assay buffer were added to the cells and incubated at 37° C. for 90 minutes or 180 minutes. The assay signal was generated through addition of 12.5 μL or 15 μL (50% V/V) of a detection reagent cocktail followed by a one hour incubation time at room temperature. Microplates were read following signal generation with a PerkinElmer Envision™ (PerkinElmer Inc., Waltham, Mass.) for chemiluminescent signal detection. Reactivity was analyzed using the CBIS data analysis suite (ChemInnovation, CA) where RLU refers to the raw measured values. The percent inhibition was calculated using the formula: % Inhibition=100%*(1−mean RLU of test sample−mean RLU of control)/(mean RLU of EC80 control−mean RLU of vehicle control).
(§4) For agonist activity, the percent activity is depicted while for antagonist activity, the percent inhibition is depicted.

The target in experiment [2] is T2, HCRTR1 (Homo sapiens, UniProt O43613).
T2 sequence (O43613 1-425): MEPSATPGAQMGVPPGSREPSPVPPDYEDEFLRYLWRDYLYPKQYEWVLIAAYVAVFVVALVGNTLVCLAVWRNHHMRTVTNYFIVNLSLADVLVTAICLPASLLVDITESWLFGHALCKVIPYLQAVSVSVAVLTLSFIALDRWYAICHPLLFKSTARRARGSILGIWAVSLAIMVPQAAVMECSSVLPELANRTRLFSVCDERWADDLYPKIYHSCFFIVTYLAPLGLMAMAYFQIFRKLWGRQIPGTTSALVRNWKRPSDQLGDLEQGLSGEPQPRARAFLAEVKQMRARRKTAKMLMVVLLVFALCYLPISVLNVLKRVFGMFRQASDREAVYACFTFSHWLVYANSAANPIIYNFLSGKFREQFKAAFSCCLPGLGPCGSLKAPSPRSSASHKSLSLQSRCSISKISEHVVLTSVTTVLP
Nature of the experiment: PathHunter β-Arrestin GPCR agonist assay, HCRTR1. Also on record: concentration or dose not given beside the values. The note with it: agonist mode; Orexin A as control. As for the experimental part: as §1, §2
(§5) A total of four assays were run. Agonist assays were run for each of HCRTR1 and HCRTR2 and antagonist assays were run for HCRTR1 and HCRTR2. In each of the two agonist assays, PathHunter® cell lines were removed from a freezer stock and seeded at a volume of 20 μL into white walled, 384-well microplates and incubated at 37° C. Each cell was incubated with a sample to induce a response and then diluted to generate a 5× sample in assay buffer. 5 μL of the 5× sample was then added to cells and incubated at 37° C. for 90 or 180 minutes. The final assay concentration was 1%. The assay signal was generated through addition of 12.5 μL or 15 μL (50% V/V) of a detection reagent cocktail followed by a one hour incubation time at room temperature. Microplates were read following signal generation with a PerkinElmer Envision™ (PerkinElmer Inc., Waltham, Mass.) for chemiluminescent signal detection. Reactivity was analyzed using the CBIS data analysis suite (ChemInnovation, CA) where RLU refers to the raw measured values. The percent activity was then calculated using the formula: % Activity=100%*(mean RLU of test sample−mean RLU of control)/(mean max control ligand−mean RLU of vehicle control).
as §4

The target in experiment [3] is T1, HCRTR2. Nature of the experiment: PathHunter β-Arrestin GPCR agonist assay, HCRTR2. Also on record: concentration or dose not given beside the values. The note with it: agonist mode; Orexin A as control. As for the experimental part:
as §1, §2, §5, §4

The next experiment concerns the target dopamine receptor DRD5 (Homo sapiens, UniProt P21918). As to the kind of experiment: PathHunter β-Arrestin GPCR agonist assay, DRD5. Set-up: DRD5 (Agonist) percent activity: concentration or dose not given beside the values. To be noted: agonist mode; dopamine as control.
From the text: as §2, §5
Table 2 depicts the results of evaluating the cannabinoid compounds to act as an agonist for the dopamine receptor DRD5. The same experimental procedure as used for HCRTR1 and HCRTR2 agonist testing (Table 1) was followed with the substitution of dopamine as the control for the DRD5 receptor.

The target of experiment [4] is T2, HCRTR1. Nature of the experiment: PathHunter β-Arrestin GPCR antagonist assay, HCRTR1. To be noted: for HCRTR1 (Antagonist) percent inhibition: antagonist mode, agonist challenge at EC80. As for the experimental part: as §1, §2, §3, §4

The values below come from US20220401407A1, “REGULATION OF THE SLEEP/WAKE CYCLE USING C[…]” (Demetrix, Inc., priority 2021, published 2022).

Entries after “also recorded” stand apart in the source; their conditions may differ.

dopamine receptor DRD5, sequence (P21918 whole entry): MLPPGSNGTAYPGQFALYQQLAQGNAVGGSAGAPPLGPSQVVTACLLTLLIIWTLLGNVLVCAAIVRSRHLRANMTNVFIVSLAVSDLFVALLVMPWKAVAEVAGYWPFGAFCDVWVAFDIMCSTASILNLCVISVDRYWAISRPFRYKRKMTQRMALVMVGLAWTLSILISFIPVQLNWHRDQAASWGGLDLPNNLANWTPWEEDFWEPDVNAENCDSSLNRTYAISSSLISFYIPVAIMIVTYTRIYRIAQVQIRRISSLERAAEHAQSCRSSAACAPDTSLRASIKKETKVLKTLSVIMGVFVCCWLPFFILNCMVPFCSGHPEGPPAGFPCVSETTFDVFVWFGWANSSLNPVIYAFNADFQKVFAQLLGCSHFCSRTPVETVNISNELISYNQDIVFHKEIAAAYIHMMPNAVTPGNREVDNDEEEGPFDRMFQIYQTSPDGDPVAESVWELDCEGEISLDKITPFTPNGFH

Turning to `CCCCCc1cc2c(c(O)c1C(=O)O)C=CC(C)(CCC=C(C)C)O2` (centres unmarked) [CBCA, cannabichromenic acid], on HCRTR2 [1], the “antagonist effect on HCRTR2 (in words)” value is “do not demonstrate meaningful activity” and the “HCRTR2 (Antagonist) percent inhibition” value stood at 17%. Moreover, the “HCRTR1 (Agonist) percent activity” value on HCRTR1 [2] is 3%. Further, the “HCRTR2 (Agonist) percent activity” value on HCRTR2 [3] came to 1%. For the same compound, at dopamine receptor DRD5, the “DRD5 (Agonist) percent activity” value turned out to be 1%. Also, on HCRTR1 [4], the “antagonist effect on HCRTR1 (in words)” value was “do not demonstrate meaningful activity” and the “HCRTR1 (Antagonist) percent inhibition” value is given as 12%.

As to `CCCCCc1cc(O)c2c(c1)OC(C)(CCC=C(C)C)C=C2` (centres unmarked) [CBC, cannabichromene], on HCRTR2 [1], the “antagonist effect on HCRTR2 (in words)” value is reported as “antagonist effect; also recorded: acted as an antagonist” and the “HCRTR2 (Antagonist) percent inhibition” value stood at 96%. In addition, on HCRTR1 [2], the “HCRTR1 (Agonist) percent activity” value worked out at 0%. On HCRTR2 [3], the “HCRTR2 (Agonist) percent activity” value is on record as 3%. Also, on dopamine receptor DRD5, the “DRD5 (Agonist) percent activity” value was found to be 22%. Further, at HCRTR1 [4], the “antagonist effect on HCRTR1 (in words)” value was “antagonist effect; also recorded: acted as an antagonist” and the “HCRTR1 (Antagonist) percent inhibition” value is reported as 98%.
